Assay results as given in patent US12162858B2, “Quinoline derivatives as inhibitors of AXL/MER RTK and CSF1R” (QURIENT CO., LTD., priority 2018, dated 2024).

Columns and labels:
Type in all cases: cell-based
Axl (Ba/F3 cells) = target: T1, Axl (Ba/F3 cells) (Homo sapiens, UniProt P30530); test: BaF3 viability assay, Axl-dependent cells; details: read-out: Cellular Axl activity by Ba/F3 assay (IC50)
T1 sequence (P30530 1-894): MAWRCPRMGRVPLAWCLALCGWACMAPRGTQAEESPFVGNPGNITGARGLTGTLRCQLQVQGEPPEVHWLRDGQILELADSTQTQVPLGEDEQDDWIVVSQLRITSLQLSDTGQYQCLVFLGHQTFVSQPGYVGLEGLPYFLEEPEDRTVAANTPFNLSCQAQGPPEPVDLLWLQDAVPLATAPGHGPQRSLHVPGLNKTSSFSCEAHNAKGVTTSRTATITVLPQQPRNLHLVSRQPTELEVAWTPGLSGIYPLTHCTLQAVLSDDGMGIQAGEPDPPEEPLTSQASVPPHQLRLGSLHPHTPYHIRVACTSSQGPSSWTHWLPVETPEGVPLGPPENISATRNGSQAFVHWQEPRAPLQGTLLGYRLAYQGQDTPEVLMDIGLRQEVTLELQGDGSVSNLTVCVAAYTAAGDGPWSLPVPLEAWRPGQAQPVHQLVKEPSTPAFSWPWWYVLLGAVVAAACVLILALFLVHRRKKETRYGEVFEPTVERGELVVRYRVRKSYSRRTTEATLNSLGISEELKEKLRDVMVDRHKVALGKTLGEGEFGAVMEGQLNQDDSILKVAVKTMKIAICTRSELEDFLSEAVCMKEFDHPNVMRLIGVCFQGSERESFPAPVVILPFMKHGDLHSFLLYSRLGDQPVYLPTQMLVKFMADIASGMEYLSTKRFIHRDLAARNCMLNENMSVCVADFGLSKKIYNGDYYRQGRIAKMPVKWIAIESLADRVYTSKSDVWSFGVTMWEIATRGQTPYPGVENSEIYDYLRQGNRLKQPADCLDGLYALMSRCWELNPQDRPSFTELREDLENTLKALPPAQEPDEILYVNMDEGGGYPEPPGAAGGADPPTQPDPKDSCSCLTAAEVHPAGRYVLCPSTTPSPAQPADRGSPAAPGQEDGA
Excerpt: (§1) In this system, IL-3-dependent Ba/F3 cells are modified to express an activated recombinant kinase (in the present case Axl, Mer and CSF1R). Following removal of IL-3, the modified cells are dependent on the activity of the recombinant kinase for survival and proliferation. Inhibition of such kinase(s) through test compounds reduces survival and proliferation of the cells.
(§2) Cell lines were maintained in growth media (GM) consisting of RPMI 1640 supplemented with 10% FBS. Cells in logarithmic-phase growth were harvested and 5,000 cells were distributed into each well of a 384-well plate in 50 μl GM. Parental cells (or experimental assays where specified) were further supplemented with 2 ng/ml IL-3 to support cell growth and survival. Fifty nanoliters of the indicated reference standard or experimental compound were added to appropriate wells (in duplicate) and the cells were cultured for 48 h at 37° C./5% CO2. Viability was determined by adding 10 μl Cell Titer Glo and measuring luminescence, which is reported as relative light units (RLU) measured in counts per second. The following calculations and formulas are used for data analysis using GraphPad Prism software: The curve fitting was made using the Dose response curves-Inhibition.

Mer (Ba/F3 cells) = target: T2, Mer (Ba/F3 cells) (Homo sapiens, UniProt Q12866); test: BaF3 viability assay, Mer-dependent cells; details: read-out: Cellular Mer activity by Ba/F3 assay (IC50)
T2 sequence (Q12866 1-999): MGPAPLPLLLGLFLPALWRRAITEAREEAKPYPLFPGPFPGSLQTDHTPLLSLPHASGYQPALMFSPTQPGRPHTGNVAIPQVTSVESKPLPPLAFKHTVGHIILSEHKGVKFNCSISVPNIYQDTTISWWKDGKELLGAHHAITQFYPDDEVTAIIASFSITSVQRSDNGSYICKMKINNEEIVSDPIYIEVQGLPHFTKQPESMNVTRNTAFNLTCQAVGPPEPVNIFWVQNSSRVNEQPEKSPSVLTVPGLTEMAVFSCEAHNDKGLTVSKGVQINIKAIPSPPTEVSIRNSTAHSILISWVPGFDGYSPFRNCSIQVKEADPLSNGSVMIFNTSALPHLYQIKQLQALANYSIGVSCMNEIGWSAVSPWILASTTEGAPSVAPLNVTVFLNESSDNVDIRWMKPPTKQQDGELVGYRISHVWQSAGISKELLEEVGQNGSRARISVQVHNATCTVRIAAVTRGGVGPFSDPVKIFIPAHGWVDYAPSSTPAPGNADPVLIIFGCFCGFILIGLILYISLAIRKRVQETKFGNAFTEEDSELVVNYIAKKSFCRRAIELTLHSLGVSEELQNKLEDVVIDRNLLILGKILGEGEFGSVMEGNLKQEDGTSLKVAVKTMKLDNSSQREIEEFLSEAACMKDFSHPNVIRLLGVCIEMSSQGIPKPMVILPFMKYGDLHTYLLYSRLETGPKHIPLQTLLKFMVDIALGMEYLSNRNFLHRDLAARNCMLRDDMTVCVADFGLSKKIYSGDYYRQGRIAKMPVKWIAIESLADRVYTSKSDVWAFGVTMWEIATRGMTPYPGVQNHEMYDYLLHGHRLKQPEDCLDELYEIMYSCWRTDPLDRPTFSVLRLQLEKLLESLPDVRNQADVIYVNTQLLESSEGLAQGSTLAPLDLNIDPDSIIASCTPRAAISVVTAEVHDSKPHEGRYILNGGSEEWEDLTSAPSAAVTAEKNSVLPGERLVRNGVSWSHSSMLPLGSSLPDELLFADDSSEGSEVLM
Excerpt: as §1, §2

CSF1R (Ba/F3 cells) = CSF1R (Ba/F3 cells) (Homo sapiens, UniProt P07333); test: BaF3 viability assay, CSF1R-dependent cells; details: read-out: Cellular CSF1R activity by Ba/F3 assay (IC50)
Chain of CSF1R (Ba/F3 cells) (P07333 whole entry, change not shown): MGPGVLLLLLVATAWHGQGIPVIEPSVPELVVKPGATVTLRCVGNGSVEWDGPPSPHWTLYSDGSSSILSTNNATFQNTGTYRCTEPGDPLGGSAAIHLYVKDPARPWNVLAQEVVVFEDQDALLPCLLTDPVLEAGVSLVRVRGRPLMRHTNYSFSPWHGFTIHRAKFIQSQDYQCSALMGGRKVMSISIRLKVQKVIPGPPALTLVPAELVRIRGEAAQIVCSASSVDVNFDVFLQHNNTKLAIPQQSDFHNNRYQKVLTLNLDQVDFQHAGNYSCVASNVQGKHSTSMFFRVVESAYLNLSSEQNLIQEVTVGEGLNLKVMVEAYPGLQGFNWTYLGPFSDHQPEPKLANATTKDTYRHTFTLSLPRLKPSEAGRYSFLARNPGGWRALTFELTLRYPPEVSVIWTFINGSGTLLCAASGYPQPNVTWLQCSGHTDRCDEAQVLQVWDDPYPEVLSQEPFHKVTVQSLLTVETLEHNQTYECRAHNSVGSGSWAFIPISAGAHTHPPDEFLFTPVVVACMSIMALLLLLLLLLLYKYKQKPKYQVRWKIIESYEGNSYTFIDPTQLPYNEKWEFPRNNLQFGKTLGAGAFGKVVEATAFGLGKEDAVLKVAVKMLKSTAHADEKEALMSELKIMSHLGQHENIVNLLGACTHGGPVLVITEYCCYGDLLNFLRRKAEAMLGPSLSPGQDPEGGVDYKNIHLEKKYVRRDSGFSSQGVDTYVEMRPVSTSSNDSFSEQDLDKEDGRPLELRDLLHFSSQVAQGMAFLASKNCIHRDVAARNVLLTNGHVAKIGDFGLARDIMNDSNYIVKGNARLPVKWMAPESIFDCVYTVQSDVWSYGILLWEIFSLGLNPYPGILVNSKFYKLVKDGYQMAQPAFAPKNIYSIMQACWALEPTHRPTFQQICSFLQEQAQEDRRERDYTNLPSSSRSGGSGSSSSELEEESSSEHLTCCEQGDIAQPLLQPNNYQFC
Excerpt: as §1, §2

Measured: GI50

COc1cc2nccc(Oc3ccc(NC(=O)c4nn(C5CC5)cc4OCC(F)(F)F)nc3)c2cc1OC [Compound 5]
< 1000 nM: Axl (Ba/F3 cells) | Mer (Ba/F3 cells) | CSF1R (Ba/F3 cells)
